Reference: PubChem BioAssay (NCI)
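Compound exposure: 48 hours, 5 concentrations, 96-well plates. At the GI50, growth is halved. Definition used: TGI = concentration required for complete inhibition of growth.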

How the values were obtained:
Experiment in all cases: inhibition of tumour cell growth, NCI panel, 48 h
SNB-75 CNS = system: SNB-75 CNS
MOLT-4 leukemia = system: MOLT-4 leukemia
SN12C renal = system: SN12C renal
OVCAR-3 ovarian = system: OVCAR-3 ovarian
EKVX NSCLC = system: EKVX NSCLC
NCI-H23 lung = system: NCI-H23 lung
HOP-62 NSCLC = system: HOP-62 NSCLC
CAKI-1 renal = system: CAKI-1 renal
MCF7 breast = system: MCF7 breast

| Structure (SMILES) | TGI (SNB-75 CNS) [µM] | TGI (MOLT-4 leukemia) [µM] | TGI (SN12C renal) [µM] | TGI (OVCAR-3 ovarian) [µM] | TGI (EKVX NSCLC) [µM] | TGI (NCI-H23 lung) [µM] | TGI (HOP-62 NSCLC) [µM] | TGI (CAKI-1 renal) [µM] | GI50 (SNB-75 CNS) [µM] | GI50 (MOLT-4 leukemia) [µM] | GI50 (SN12C renal) [µM] | GI50 (MCF7 breast) [µM] | TGI (MCF7 breast) [µM] | GI50 (OVCAR-3 ovarian) [µM] | GI50 (EKVX NSCLC) [µM] | GI50 (CAKI-1 renal) [µM] | GI50 (NCI-H23 lung) [µM] |
| --- | --- | --- | --- | --- | --- | --- | --- | --- | --- | --- | --- | --- | --- | --- | --- | --- | --- |
| c1ccc(-c2csc3ncn4cnnc4c23)cc1 | 89.3 | > 100 | > 100 | > 100 | > 100 | > 100 |  |  |  |  |  |  |  |  |  |  |  |
| Cc1ccc(C2=Nc3ccccc3SC(c3cccc4c3OCO4)C2)cc1 (stereo not given) | 28.8 | 55.7 | 41 | 28.5 | 38.7 | 39.8 | > 100 | 30 |  |  |  |  |  |  |  |  |  |
| Cn1nc(-c2ccccc2)c(C(=O)/C=C/c2ccc(Cl)cc2)c(N2CCOCC2)c1=O |  | 4.63 | 29.2 |  | 27.1 | 8.25 | 33.7 | 19.7 |  |  |  |  |  |  |  |  |  |
| O=[N+]([O-])/C=C/c1ccc(Cl)cc1Cl | 34.8 | 45.7 |  | 53.6 |  | 42.9 | 28.6 | 29.8 |  |  |  |  |  |  |  |  |  |
| N#C/C(=C1\OC(=N)C(c2ccc(Cl)cc2Cl)C1=O)c1ccc(Cl)cc1Cl (stereo not given) | > 100 | > 100 | > 100 | > 100 | > 100 | > 100 |  | > 100 |  |  |  |  |  |  |  |  |  |
| O=C(c1c(O)cc(O)cc1O)C1Cc2ccccc21 (stereo not given) | 60.9 | > 100 | > 100 |  |  |  | > 100 | > 100 |  |  |  |  |  |  |  |  |  |
| CC(N)CC(=O)O (stereo not given) | > 5000 | > 5000 | > 5000 | > 5000 | > 5000 | > 5000 |  |  |  |  |  |  |  |  |  |  |  |
| O=C(CC(=O)c1ccccc1)C(=O)Nc1ccc(Cl)cc1 | > 100 | > 100 | > 100 | > 100 | > 100 | > 100 | > 100 | > 100 |  |  |  |  |  |  |  |  |  |
| CC(C)OC(=O)C1Cc2c([nH]c3ccccc23)C(c2ccccc2)N1 (stereo not given) | 86.5 | > 100 | > 100 | > 100 | > 100 | > 100 | 69.9 | > 100 |  |  |  |  |  |  |  |  |  |
| O=C(Cc1ccccc1)C(c1ccccc1)S(=O)(=O)c1ccccc1 (stereo not given) | > 100 | > 100 | > 100 | > 100 | > 100 | > 100 | > 100 | > 100 |  |  |  |  |  |  |  |  |  |
| C[P+]1(c2ccccc2)CCCCC1 | > 100 | > 100 | > 100 | > 100 | > 100 | > 100 | > 100 | > 100 |  |  |  |  |  |  |  |  |  |
| C=C1C=CC2(Br)OC3CC(C)(Cl)C(Br)CC13C2(C)C (stereo not given) | 77.7 | 34.9 | 37.7 | 40.8 | 61.9 | 39.2 | 48 | > 100 |  |  |  |  |  |  |  |  |  |
| CC(=O)Nc1ccc(S(=O)(=O)NN(C)S(=O)(=O)c2ccc(C)cc2)cc1 |  | > 100 | > 100 | > 100 | > 100 | > 100 | > 100 | > 100 |  |  |  |  |  |  |  |  |  |
| C=CC(=O)N[C@@H](/C=C/C(=O)OCC)Cc1ccc(-c2cc(Cl)cc(Cl)c2)cc1 | 70 | > 100 | 26.7 | 53.1 | > 100 | > 100 |  | > 100 | 10.8 | 7.14 | 8.04 | 5.92 | 66.4 | 7.27 | 11.2 | 21.5 | 11.8 |
| Cc1ccc(NC(=O)/C(C#N)=C/c2ccccc2)c(C)c1 | > 100 | > 100 | > 100 | > 100 | > 100 | > 100 | > 100 | > 100 |  |  |  |  |  |  |  |  |  |
| CC(=O)[CH-]C(C)=O.CC(=O)[CH-]C(C)=O.CC(=O)[CH-]C(C)=O.[Ga+3] | > 100 |  | > 100 | > 100 | > 100 | > 100 |  | > 100 | > 100 |  | > 100 |  |  | > 100 | > 100 | > 100 | > 100 |
| CC(=O)CC(=O)CCC(=O)Nc1cccc(C(F)(F)F)c1 |  | > 100 | > 100 | > 100 | > 100 | > 100 | > 100 | > 100 |  |  |  |  |  |  |  |  |  |
| Cc1nnc(N/N=C(/C(=O)C(C#N)c2ccc(Cl)cc2)C(C#N)c2ccc(Cl)cc2)n1N (stereo not given) | 30.1 | > 100 | 34.9 | 48.8 |  | 35.3 | 30.3 | 43.1 |  |  |  |  |  |  |  |  |  |
| CCOC(=O)C(CCCNC(=O)OC(C)(C)C)N(Cc1ccc(OC)cc1OC)C(=O)CC(=O)CP(=O)(OCC)OCC (stereo not given) | > 100 | > 100 | > 100 | > 100 | > 100 | > 100 | > 100 | > 100 |  |  |  |  |  |  |  |  |  |
| O=C(CO)C1CC2C=CC1C2 (stereo not given) | > 100 | > 100 | > 100 | > 100 | > 100 | > 100 | > 100 | > 100 |  |  |  |  |  |  |  |  |  |
| N#CNC1=NC(N)C(c2nc3ccccc3[nH]2)=C(CCCC(=O)Nc2cccc([N+](=O)[O-])c2)N1 (stereo not given) | > 100 | > 100 | > 100 | > 100 | > 100 | > 100 | > 100 | > 100 |  |  |  |  |  |  |  |  |  |
